In patent US20240424147A1, “PHTHALOCYANINE-LOADED MICELLES FOR THE DIRECT VISUALIZATION OF TUMORS” (THE TRUSTEES OF THE UNIVERSITY OF PENNSYLVANIA, priority 2022, published 2024):

Key:
[1] = free dye; cited from earlier work
[2] = Photothermal stability, repeated heating and cooling cycles; assay type: physicochemical; conditions: three 10-min heating/cooling cycles, 808 nm, 9.4 uM
Description: (§1) A total of twenty-eight phthalocyanine and nine naphthalocyanine dyes were loaded into polymeric micelles, composed of the amphiphilic diblock copolymer PEGPCL, via oil-in-water emulsions (FIGS. 16A, 16B, 16C). The nanoparticles were characterized by UV-absorption spectroscopy and dynamic light scattering. The photothermal heating potential and photothermal stability of nanoparticles were assessed by irradiating samples using an 808 nm laser for 10 minutes at 0.75 W. Photoacoustic imaging signal was assessed by loading micelles into a phantom submerged in water. The top 5 naphthalocyanines and top 4 phthalocyanines, based on PA and heating properties, were used for in vitro and in vivo studies. The cytotoxicity and photocytotoxicity of the various micelles were assessed with ovarian cancer ID8-luciferase cells and breast cancer 4T1 cells using an MTS cell proliferation assay.
Various Pc and Nc-loaded micelles (9.4 uM) were heated multiple times, using a laser (0.75 W/cm2), in 10-min increments. (FIG. 22) The samples were allowed to cool to room temperature between successive rounds.

[3] = PCs nanoparticles retention study: dialysis against 20 mM sodium cholate; assay type: physicochemical; conditions: 24 h, in words
Description: 100 μL of PCs nanoparticles was diluted in 3 mL of 20 mM sodium cholate solution. Dialysis was performed with dialysis tubing (12,000-14,000 MWCO, Fisher) into 500 mL of 20 mM sodium cholate buffer at room temperature. The buffer was changed after 4 hours. The absorbance of the solutions was recorded before and after (24 hours) dialysis to determine dye retention percentage. […] Methylene blue (MB) is the only water-soluble blue dye that is used in this study.
PCs nanoparticles were synthesized using amphiphilic diblock copolymer (PEG-PCL) (FIG. 1A, phthalocyanine dyes used in this study are shown in FIGS. 4A-4F, see methods in Example 1). Due to the hydrophobic nature of PCs, they tend to aggregate in the aqueous medium (intermolecular interaction (π-π stacking)). […] The size of nanoparticles was determined with dynamic light scattering (DLS). […] The release of the PCs from PCs loaded micelles was assessed in sodium cholate buffer by monitoring leakage of PCs dyes as a function of time. […]
100 μL of PCs nanoparticles was diluted in 3 mL of 20 mM sodium cholate solution. […] The absorbance of the solutions was recorded before and after (24 hours) dialysis to determine dye retention percentage.

[4] = test system: 4T1 triple-negative breast flank tumors; test: Direct visualization of 4T1 flank tumors after injection of micelles (SBR by ImageJ); assay type: in vivo, BALB/c mice; conditions: 10 mg/kg intravenous (retro-orbital), 24 h where stated
Description: Photographs were quantified using ImageJ. Normalized signal-to-background (SBR) measurements were made using the tumor (i.e., the intensity of the blue color) and its surrounding tissue as background after 24 h of PCs loaded micelles (10 mg/kg) and MB (10 mg/kg) intravenous (retro-orbital) injection (n=3).
To identify the PC-loaded micelle formulation that is best able to differentiate tumors from surrounding healthy tissues via direct visualization, BALB/c mice bearing syngeneic 4T1 triple-negative breast flank tumors were injected intravenously with the various micelle formulations (10 mg/kg based on the dye concentration, 24 h before evaluation). […] Normalized signal-to-background (SBR) measurements were calculated in ImageJ using the intensity of the blue color within the tumor and its surrounding tissue, respectively.
4T1 tumor cells (2×10^6 cells in 100 ul) were implanted in the right flank of BALB/c mice (aged 6 weeks). […]
To assess blue nanoparticle accumulation in the breast and spontaneous colorectal mice model, tumors were evaluated visually, and normalized signal-to-background (SBR) was quantitated for each tumor relative to the surrounding tissue by measuring the intensity of blue-green colors via ImageJ. […] Tissues were placed in microscope glass slides, imaged fluorescence in the Cy5 filter (excitation 628-40 nm, emission 692-40 nm), and analyzed via ImageJ. […]

[5] = Photothermal heating of micelles in water under 808 nm laser; assay type: physicochemical; conditions: 808 nm laser 0.75 W/cm2, 10 min
Description: FIGS. 1A-1H show the preparation, characterization and uses of the PC dye micelles according to the invention. […] Infrared thermal images of water and NiPC micelle solution under laser irradiation.
as §1
Pc and Nc-loaded micelles (9.4 uM dye concentration) and controls (empty micelles and water) were prepared and then irradiated at 808 nm (0.75 W/cm2) continuously for 10 min; heating of each sample was measured as a function of time. (FIG. 21)

Row | heating ability after repeated irradiation [2] | release from the dialysis tubing [3] | Compound | clearance upon injection [1] | tumor contrast / dye accumulation by direct visualization [4] | PTT performance compared with other dyes [5]
1 | lost its ability to heat |  | CC1(C)C(/C=C/C=C/C=C/C=C2\N(CCCCS(=O)(=O)O)c3ccc4ccccc4c3C2(C)C)=[N+](CCCCS(=O)(=O)[O-])c2ccc3ccccc3c21 [ICG, indocyanine green] | cleared within minutes upon injection |  | 
2 |  | released entirely | CN(C)c1ccc2nc3ccc(=[N+](C)C)cc-3sc2c1 [MB, Methylene blue] | cleared within minutes upon injection | no accumulation was observed | 
3 |  |  | CCCCOc1c2c(c(OCCCC)c3ccccc13)-c1nc-2nc2[n-]c(nc3nc(nc4[n-]c(n1)c1c(OCCCC)c5ccccc5c(OCCCC)c41)-c1c-3c(OCCCC)c3ccccc3c1OCCCC)c1c(OCCCC)c3ccccc3c(OCCCC)c21.[Cu+2] [CuNc Octa, Copper(II) 5,9,14,18,23,27,32,36-octabutoxy-2,3-naphthalocyanine] |  |  | outperforms all previously tested Pc/Nc dyes for PTT
